{"source": "patent US7939621B2", "about": "“Oligocarbonate molecular transporters” (International Business Machines Corporation, priority 2009, dated 2011)", "key": {"[1]": {"tested_on": "Jurkat cells", "test": "Cellular uptake assay by flow cytometry", "assay_type": "cell-based", "conditions": "5, 12.5, 25 μM, pH 7.2 PBS, 5 min, 23° C.", "method": "Dansyl-tagged oligomers and octaarginine control were brought up in pH 7.2 PBS buffer at 5 μM, 12.5 μM, and 25 μM concentrations. […] Cells were plated on a microtiter plate at 3.0×10^6 cells/mL with 200 μL/well. The plate was centrifuged (1300 rpm for 3 min), media removed, and cells resuspended in PBS buffer twice.\nCompounds 6(a-c) and the r8 control at varying concentrations were incubated with the cells for 5 minutes at 23° C. The microtiter plates were centrifuged and the cells were isolated, washed with PBS and resuspended in PBS containing propidium iodide (3 μg/mL, 0.01%). The cells were analyzed using a fluorescent flow cytometer (Vantoo, Stanford University) equipped with a UV laser for excitation of the dansyl fluorophore, and cells stained with propidium iodide were excluded from the analysis. The data presented are the mean fluorescent signals for the 20,000 cells analyzed."}, "[2]": {"tested_on": "Jurkat cells", "test": "MTT toxicity assay", "assay_type": "cell-based", "conditions": "Homo sapiens, 24 h with compound at 37° C., then 24 h fresh media", "method": "Jurkat cells grown in 10% FBS in RPMI media 1640 (+ glutamine) were plated at 5-10×10^4 cells/mL on a 96-well microtiter plate in the same media. In a second 96-well plate, compound was serially diluted in triplicate over 20 wells in columns 2-11 and rows 1-3 and 5-7; typical dilutions spanned the concentration range of 400 μM to 20 nM. Columns 1 and 12 contained no cells and no compound, respectively. Rows 4 and 8 contained a serial dilution of colchicine as internal control; colchicine concentrations were generally much lower than compound concentrations in order to obtain an EC50 (half-maximal effective concentration).\nCompounds were added to the plate containing cells and the cells were incubated at 37° C. for 24 h, at which point the plate was centrifuged, compound removed, and the cells resuspended in fresh media. […] Cells were incubated with MTT for 3 hours at 37° C., 150 μL solubilizing solution (10% triton X-100, 90% 0.1N HCl in isopropanol) was added to each well, and colorimetry data obtained on a plate reader.\nNumerical data from plate reader was standardized using values from columns 1 and 12 and curve fitting was performed using Graph Pad Prism software to obtain an EC50 for each compound."}}, "data": [{"smiles": "CN(C)c1cccc2c(S(=O)(=O)NCCO)cccc12", "note": "[Compound 4, 5-(dimethylamino)-N-(2-hydroxyethyl)naphthalene-1-sulfonamide, reference compound]", "values": [{"measurement": "Cellular uptake into Jurkat cells", "setting": "[1]", "result": "does not enter Jurkat cells"}, {"measurement": "EC50", "setting": "[2]", "result": 311, "unit": "µM"}]}]}
